# In patent publication US11590129B2, “Combination therapy with an antitumor alkaloid” (PHARMA MAR, S.A., priority 2010, dated 2023):
# What was measured:
# [1] = test system: A549 human lung carcinoma cell line; experiment: MTT cytotoxicity assay in A549 cells: IC50 of single agents and combinations with PM01183; type: cell-based; details: Homo sapiens, A549, 72 h
# Procedure, shortened: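 A549 cells seeded at 5,000 per well, grown 24 h drug-free, then exposed to vehicle or compounds for 72 h, either singly or combined with PM01183. Combination responses plotted against dose ratio relative to an additivity line.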
# SW1990 tumors = experiment: Human pancreatic tumor xenografts (SW1990) in athymic nude mice, tumor volume % T/C; type: in vivo
# Protocol: Female athymic nude mice (Harlan Laboratories Models, S.L. (Barcelona, Spain) were utilized for all experiments. Animals were housed in individually ventilated cages, up to ten per cage in a 12-hour light-dark cycle at 21-23° C. and 40-60% humidity. The mice were allowed free access to irradiated standard rodent diet and sterilized water. Animals were acclimated for at least 5 days prior to tumor implantation with a tumor cell suspension.
# Each animal was subcutaneously implanted on the right flank, using 26G needle and a 1 cc syringe, with 5×10^6 SW1990 cells, from in vitro passage 12, in 0.05 mL suspension of 50% Matrigel and 50% serum free medium, without antibiotics.
# PM01183 was provided in the form of vials of lyophilized PM01183 cake which was reconstituted with water for infusion to a concentration of 0.2 mg/mL. The PM01183 stock solution was further diluted in 5% glucose solution for injection to the dosing formulation concentrations.
# Dose level groups were administered either as single agents or in combination.
# Comparison of the median tumor volume in the treatment groups (T) to the median tumor volume in the control group (T/C×100%) was used for evaluation of the antitumor efficacy.
# H460 tumors = experiment: Human lung tumor xenografts (H460) in athymic nude mice, tumor volume % T/C
# HT-29 tumors = experiment: Human colorectal tumor xenografts (HT-29) in athymic nude mice, tumor volume % T/C
# [2] = PM01183 0.045 mg/kg iv days 0,7,14
# [3] = PM01183 0.09 mg/kg iv days 0,7,14
# [4] = PM01183 0.135 mg/kg iv days 0,7,14
# [5] = PM01183 0.18 mg/kg iv days 0,7,14
structure (smiles),measurement,setting,value
COc1ccc2[nH]c3c(c2c1)CCN[C@]31CS[C@@H]2c3c(OC(C)=O)c(C)c4c(c3[C@H](COC1=O)N1[C@@H]2[C@H]2c3c(cc(C)c(OC)c3O)C[C@@H]([C@@H]1O)N2C)OCO4 [PM01183],IC50,[1],3.6 nM
same,% T/C on day 0,SW1990 tumors; [2],100.2%
same,% T/C on day 3,SW1990 tumors; [2],83.6%
same,% T/C on day 6,SW1990 tumors; [2],82.8%
same,% T/C on day 8,SW1990 tumors; [2],93.3%
same,% T/C on day 10,SW1990 tumors; [2],82.9%
same,% T/C on day 13,SW1990 tumors; [2],88.1%
same,% T/C on day 15,SW1990 tumors; [2],92.6%
same,% T/C on day 17,SW1990 tumors; [2],86.5%
same,% T/C on day 20,SW1990 tumors; [2],85.1%
same,% T/C on day 22,SW1990 tumors; [2],84.5%
same,% T/C on day 24,SW1990 tumors; [2],85.8%
same,% T/C on day 28,SW1990 tumors; [2],85.4%
same,% T/C on day 0,SW1990 tumors; [3],101.1%
same,% T/C on day 3,SW1990 tumors; [3],81.5%
same,% T/C on day 6,SW1990 tumors; [3],72.8%
same,% T/C on day 8,SW1990 tumors; [3],68.7%
same,% T/C on day 10,SW1990 tumors; [3],68.4%
same,% T/C on day 13,SW1990 tumors; [3],74.4%
same,% T/C on day 15,SW1990 tumors; [3],74.7%
same,% T/C on day 17,SW1990 tumors; [3],80.7%
same,% T/C on day 20,SW1990 tumors; [3],71.9%
same,% T/C on day 22,SW1990 tumors; [3],75.4%
same,% T/C on day 24,SW1990 tumors; [3],77.3%
same,% T/C on day 28,SW1990 tumors; [3],63.9%
same,% T/C on day 0,SW1990 tumors; [4],99.6%
same,% T/C on day 3,SW1990 tumors; [4],81.3%
same,% T/C on day 6,SW1990 tumors; [4],71.0%
same,% T/C on day 8,SW1990 tumors; [4],73.1%
same,% T/C on day 10,SW1990 tumors; [4],65.6%
same,% T/C on day 13,SW1990 tumors; [4],63.1%
same,% T/C on day 15,SW1990 tumors; [4],56.3%
same,% T/C on day 17,SW1990 tumors; [4],56.7%
same,% T/C on day 20,SW1990 tumors; [4],56.9%
same,% T/C on day 22,SW1990 tumors; [4],56.5%
same,% T/C on day 24,SW1990 tumors; [4],53.0%
same,% T/C on day 28,SW1990 tumors; [4],51.7%
same,% T/C on day 0,SW1990 tumors; [5],100.0%
same,% T/C on day 3,SW1990 tumors; [5],74.3%
same,% T/C on day 6,SW1990 tumors; [5],61.3%
same,% T/C on day 8,SW1990 tumors; [5],59.4%
same,% T/C on day 10,SW1990 tumors; [5],56.7%
same,% T/C on day 13,SW1990 tumors; [5],56.1%
same,% T/C on day 15,SW1990 tumors; [5],53.2%
same,% T/C on day 17,SW1990 tumors; [5],47.8%
same,% T/C on day 20,SW1990 tumors; [5],44.2%
same,% T/C on day 22,SW1990 tumors; [5],45.3%
same,% T/C on day 24,SW1990 tumors; [5],44.8%
same,% T/C on day 28,SW1990 tumors; [5],38.9%
same,% T/C on day 0,H460 tumors; PM01183 0.045 mg/kg,108.3%
same,% T/C on day 2,H460 tumors; PM01183 0.045 mg/kg,78.7%
same,% T/C on day 5,H460 tumors; PM01183 0.045 mg/kg,61.2%
same,% T/C on day 7,H460 tumors; PM01183 0.045 mg/kg,67.2%
same,% T/C on day 9,H460 tumors; PM01183 0.045 mg/kg,78.8%
same,% T/C on day 12,H460 tumors; PM01183 0.045 mg/kg,87.9%
same,% T/C on day 0,H460 tumors; PM01183 0.09 mg/kg,116.9%
same,% T/C on day 2,H460 tumors; PM01183 0.09 mg/kg,83.1%
same,% T/C on day 5,H460 tumors; PM01183 0.09 mg/kg,83.9%
same,% T/C on day 7,H460 tumors; PM01183 0.09 mg/kg,76.9%
same,% T/C on day 9,H460 tumors; PM01183 0.09 mg/kg,80.6%
same,% T/C on day 12,H460 tumors; PM01183 0.09 mg/kg,84.9%
same,% T/C on day 0,H460 tumors; PM01183 0.135 mg/kg,117.6%
same,% T/C on day 2,H460 tumors; PM01183 0.135 mg/kg,77.4%
same,% T/C on day 5,H460 tumors; PM01183 0.135 mg/kg,67.5%
same,% T/C on day 7,H460 tumors; PM01183 0.135 mg/kg,71.7%
same,% T/C on day 9,H460 tumors; PM01183 0.135 mg/kg,66.7%
same,% T/C on day 12,H460 tumors; PM01183 0.135 mg/kg,52.9%
same,% T/C on day 0,H460 tumors; PM01183 0.18 mg/kg,114.4%
same,% T/C on day 2,H460 tumors; PM01183 0.18 mg/kg,79.6%
same,% T/C on day 5,H460 tumors; PM01183 0.18 mg/kg,74.7%
same,% T/C on day 7,H460 tumors; PM01183 0.18 mg/kg,75.0%
same,% T/C on day 9,H460 tumors; PM01183 0.18 mg/kg,69.1%
same,% T/C on day 12,H460 tumors; PM01183 0.18 mg/kg,64.9%
same,% T/C on day 0,HT-29 tumors; PM01183 0.045 mg/kg,99.8%
same,% T/C on day 3,HT-29 tumors; PM01183 0.045 mg/kg,103.7%
same,% T/C on day 5,HT-29 tumors; PM01183 0.045 mg/kg,100.6%
same,% T/C on day 7,HT-29 tumors; PM01183 0.045 mg/kg,111.1%
same,% T/C on day 10,HT-29 tumors; PM01183 0.045 mg/kg,135.8%
same,% T/C on day 12,HT-29 tumors; PM01183 0.045 mg/kg,125.1%
same,% T/C on day 14,HT-29 tumors; PM01183 0.045 mg/kg,109.3%
same,% T/C on day 0,HT-29 tumors; PM01183 0.09 mg/kg,98.4%
same,% T/C on day 3,HT-29 tumors; PM01183 0.09 mg/kg,100.9%
same,% T/C on day 5,HT-29 tumors; PM01183 0.09 mg/kg,88.7%
same,% T/C on day 7,HT-29 tumors; PM01183 0.09 mg/kg,121.9%
same,% T/C on day 10,HT-29 tumors; PM01183 0.09 mg/kg,129.8%
same,% T/C on day 12,HT-29 tumors; PM01183 0.09 mg/kg,114.1%
same,% T/C on day 14,HT-29 tumors; PM01183 0.09 mg/kg,109.4%
same,% T/C on day 17,HT-29 tumors; PM01183 0.09 mg/kg,116.1%
same,% T/C on day 20,HT-29 tumors; PM01183 0.09 mg/kg,93.4%
same,% T/C on day 0,HT-29 tumors; PM01183 0.135 mg/kg,98.4%
same,% T/C on day 3,HT-29 tumors; PM01183 0.135 mg/kg,106.4%
same,% T/C on day 5,HT-29 tumors; PM01183 0.135 mg/kg,95.3%
same,% T/C on day 7,HT-29 tumors; PM01183 0.135 mg/kg,116.6%
same,% T/C on day 10,HT-29 tumors; PM01183 0.135 mg/kg,115.2%
same,% T/C on day 12,HT-29 tumors; PM01183 0.135 mg/kg,119.1%
same,% T/C on day 14,HT-29 tumors; PM01183 0.135 mg/kg,121.5%
same,% T/C on day 17,HT-29 tumors; PM01183 0.135 mg/kg,133.1%
same,% T/C on day 20,HT-29 tumors; PM01183 0.135 mg/kg,105.2%
same,% T/C on day 0,HT-29 tumors; PM01183 0.18 mg/kg,100.4%
same,% T/C on day 3,HT-29 tumors; PM01183 0.18 mg/kg,108.4%
same,% T/C on day 5,HT-29 tumors; PM01183 0.18 mg/kg,86.5%
same,% T/C on day 7,HT-29 tumors; PM01183 0.18 mg/kg,101.1%
same,% T/C on day 10,HT-29 tumors; PM01183 0.18 mg/kg,116.5%
same,% T/C on day 12,HT-29 tumors; PM01183 0.18 mg/kg,115.4%
same,% T/C on day 14,HT-29 tumors; PM01183 0.18 mg/kg,123.4%
same,% T/C on day 17,HT-29 tumors; PM01183 0.18 mg/kg,86.7%
same,% T/C on day 20,HT-29 tumors; PM01183 0.18 mg/kg,77.5%
